From PMC6628648, “Enabling microbial syringol conversion through structure-guided protein engineering” (Proceedings of the National Academy of Sciences of the …, 2019)
Where two headings read alike, the source gives them in different places.

What was measured:
WT GcoA = target: T1, WT GcoA (Amycolatopsis sp., UniProt P0DPQ7); experiment: End-point coupling assay (formaldehyde produced per NADH consumed); type: biochemical, Amycolatopsis sp. ATCC 39116; settings: molar ratio formaldehyde produced per NADH consumed, 200 µM NADH, 200 µM aromatic substrate
T1 construct: GST (N, cleaved yes); made in house; host or cells: E. coli Rosetta 2 (DE3)
T1 sequence (P0DPQ7 1-407): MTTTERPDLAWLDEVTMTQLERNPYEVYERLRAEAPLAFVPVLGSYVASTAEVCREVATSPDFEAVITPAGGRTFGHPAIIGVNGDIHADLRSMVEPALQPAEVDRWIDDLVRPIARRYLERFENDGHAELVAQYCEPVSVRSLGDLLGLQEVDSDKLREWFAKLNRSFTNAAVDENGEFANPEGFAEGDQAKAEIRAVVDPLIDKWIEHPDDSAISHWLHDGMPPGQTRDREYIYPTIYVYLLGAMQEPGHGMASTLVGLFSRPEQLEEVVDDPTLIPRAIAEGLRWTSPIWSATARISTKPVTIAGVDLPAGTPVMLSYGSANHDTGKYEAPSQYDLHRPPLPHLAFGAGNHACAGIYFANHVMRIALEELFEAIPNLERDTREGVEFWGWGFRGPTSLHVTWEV

GcoA-F169A = GcoA-F169A (Amycolatopsis sp., UniProt P0DPQ7, F169A); experiment: Substrate dissociation constant by ferric spin-state (UV/vis) titration; type: binding, Amycolatopsis sp. ATCC 39116; design: GST (N, cleaved yes); made in house; host or cells: E. coli Rosetta 2 (DE3)
Sequence of GcoA-F169A (P0DPQ7 whole entry F169A): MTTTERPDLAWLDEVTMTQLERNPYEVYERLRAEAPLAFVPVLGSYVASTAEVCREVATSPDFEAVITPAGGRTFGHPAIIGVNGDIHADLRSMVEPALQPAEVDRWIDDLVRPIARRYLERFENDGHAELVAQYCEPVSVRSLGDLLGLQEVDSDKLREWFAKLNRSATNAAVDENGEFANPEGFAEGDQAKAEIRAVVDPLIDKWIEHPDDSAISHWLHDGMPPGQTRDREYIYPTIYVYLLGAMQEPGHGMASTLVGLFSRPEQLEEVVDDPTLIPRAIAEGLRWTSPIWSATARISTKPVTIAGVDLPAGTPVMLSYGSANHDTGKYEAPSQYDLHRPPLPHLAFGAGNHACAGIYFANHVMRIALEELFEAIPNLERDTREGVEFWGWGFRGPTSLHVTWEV
Procedure: The equilibrium binding constant, KD, for GcoA-F169A and guaiacol, syringol, and 3MC was determined as described previously ([28]) and detailed in SI Appendix. […]
vi = Vmax[S]/(KM + [S]) (4)
Determination of substrate dissociation constants (KD) with F169A. 0-60 µM of guaiacol, syringol, or 3MC in 0.5 or 1 µM aliquots, were titrated into a cuvette containing 3 µM F169A GcoA in 25 mM HEPES, 50 mM NaCl, pH 7.5. The spectrum after each substrate addition was recorded, beginning with no substrate bound. The solution reached equilibrium before the next addition. A difference spectrum was made to illustrate the shift from a low-spin aquo-heme complex to the high-spin substrate-bound complex (spectral […]
shift from 417 nm to 388 nm). […] The absorbance […]
at 388 nm (Abs388-417 nm) was plotted as a function of [substrate], yielding a quadratic curve that was fit to equation (5) to determine […]
Δ Absobs = Δ Absmax2Et(L0 + Et + KD − √(L0 + Et + Kd)2 − 4Et ∗ L0) (5)
Where L0, Et, KD, and ΔAbsmax are the ligand concentrations, total protein (subunit) concentration, the equilibrium dissociation constant, and the maximum Abs388-417 nm, respectively. Reported values are the average of 2 or more measurements.
Formaldehyde determination. A colorimetric assay using tryptophan can be used to quantify the amount of formaldehyde produced in F169 GcoA/B reactions with guaiacol, syringol, or 3MC. 0.2 µM each of F169 GcoA mutants and GcoB were dissolved in air-saturated buffer (25 mM HEPES, 50 mM NaCl) in a cuvette at pH 7.5, 25 °C. 100 µg/mL catalase was added to each reaction to capture any H2O2 formed during the uncoupled reaction. 200 μM NADH was added and the background rate recorded. 100 (guaiacol, syringol, or 3MC) or 200 (syringol) μM of substrate was then added and the reaction monitored until there was no more change, due to either substrate, NADH or O2 depletion, whichever occurred first. […] After cooling, the absorbance was read at 575 nm and the [formaldehyde] calculated by using ε575 nm = 4.2 mM-1 cm-1, obtained with formaldehyde as a standard (1). […]

Q: For `COc1ccccc1O` [guaiacol, 2-methoxyphenol], which Coupling efficiency (WT GcoA) is on record?
A: 110 ± 10%

Q: What about the Kd (GcoA-F169A) of the same compound?
A: 7.1 ± 0.1 µM

Q: For `COc1cccc(OC)c1O` [syringol, 2,6-dimethoxyphenol], which Coupling efficiency (WT GcoA) is on record?
A: 7.1 ± 0.8%

Q: And the Kd (GcoA-F169A)?
A: 1.7 ± 0.07 µM

Q: With `COc1cccc(O)c1O` [3MC, 3-methoxycatechol] as the compound, how does the Coupling efficiency (WT GcoA) read?
A: 78 ± 3%

Q: And the Kd (GcoA-F169A; GcoA-F169A, air-saturated 25 mM Hepes, 50 mM NaCl, pH 7.5, 25 °C, low-spin (417 nm) to high-spin (388 nm) change)?
A: 9.5 ± 0.2 µM
